The source of these data is patent publication US9458187B2, “Methods for treatment of inflammatory conditions using S-[4-(3-fleuro-3-methylbutyryloxy)but-2-ynyl]6α, 9α-difluoro-17α-(furan-2-yl) carbonyloxy-11β-hydroxy-16α-methyl-3-oxoandrosta-1,4-diene-17β-carbothioate” (Sun Pharma Advanced Research Company Limited, priority 2013, dated 2016).

Data set [1] relates to intraocular pressure (IOP). Description: Effect on intraocular pressure (IOP). To be noted: 40 μl ophthalmic, 10 instillations daily for 10 days; FIG. 4. Type of data set: in vivo, rabbits. On the procedure: IOP measurement was performed 1 hr after instillation of the last dose (results are represented in FIG. 4—Effect of ophthalmic steroids on-IOP in rabbits).
In another data set the target is T1, Aldosterone receptor (Rattus norvegicus, UniProt P22199).
T1 construct: aldosterone (Wistar rat kidney); from tissue; host or cells: Wistar rat kidney
T1 sequence (P22199 1-981): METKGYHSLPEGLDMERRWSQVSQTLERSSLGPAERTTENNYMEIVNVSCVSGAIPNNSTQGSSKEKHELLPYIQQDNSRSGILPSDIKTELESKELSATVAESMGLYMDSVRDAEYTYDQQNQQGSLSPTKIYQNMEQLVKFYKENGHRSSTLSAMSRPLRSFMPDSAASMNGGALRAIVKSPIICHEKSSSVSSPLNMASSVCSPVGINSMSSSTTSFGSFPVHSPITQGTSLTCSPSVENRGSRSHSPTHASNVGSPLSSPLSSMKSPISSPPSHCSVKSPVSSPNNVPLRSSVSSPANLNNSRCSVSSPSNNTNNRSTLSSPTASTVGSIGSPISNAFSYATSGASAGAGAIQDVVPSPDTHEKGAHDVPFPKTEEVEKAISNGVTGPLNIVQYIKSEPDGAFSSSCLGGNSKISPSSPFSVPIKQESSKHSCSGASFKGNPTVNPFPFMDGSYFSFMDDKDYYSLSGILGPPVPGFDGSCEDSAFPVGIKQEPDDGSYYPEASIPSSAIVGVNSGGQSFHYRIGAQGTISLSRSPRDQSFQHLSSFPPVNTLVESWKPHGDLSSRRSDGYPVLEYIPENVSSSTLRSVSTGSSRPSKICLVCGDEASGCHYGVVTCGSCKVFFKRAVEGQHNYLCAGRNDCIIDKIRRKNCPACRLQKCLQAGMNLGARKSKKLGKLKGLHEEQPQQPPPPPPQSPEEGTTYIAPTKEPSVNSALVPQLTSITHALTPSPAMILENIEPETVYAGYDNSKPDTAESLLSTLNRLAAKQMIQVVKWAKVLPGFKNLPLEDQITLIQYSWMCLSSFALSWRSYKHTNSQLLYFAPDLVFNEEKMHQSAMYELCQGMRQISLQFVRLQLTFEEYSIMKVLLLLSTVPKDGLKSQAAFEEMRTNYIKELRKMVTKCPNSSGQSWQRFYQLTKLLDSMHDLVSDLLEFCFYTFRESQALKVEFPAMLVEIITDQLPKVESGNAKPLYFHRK
Description: Steroidal receptor binding screen, aldosterone. The text has this: (§1) For determination of binding to other related steroidal receptors by compound of the present invention cloned receptors from cells indicated in the parentheses were used: estrogen Erα/Erβ and progesterone (human recombinant insect Sf9), testosterone (human LnCAP) and aldosterone (Wistar rat kidney).

The subject of data set [2] is ovalbumin-induced increase in intranasal pressure. The experiment in a line: Ovalbumin-induced increase in intranasal pressure. To be noted: intranasal instillation 24 hr and 2 hr prior to ovalbumin challenge; FIG. 2. Type of data set: in vivo, guinea pigs. As to the method:
Animals sensitized with ovalbumin as described above were used for experiments determining intranasal pressure. Intranasal instillation of compound of formula I, fluticasone propionate or placebo was done 24 hr and 2 hr prior to challenge with ovalbumin. The nasopharynx was catheterized with a PE cannula, one end of which was attached to pressure transducer and other to the nebulizer. Ovalbumin (5%) was nebulized into the nasal cavity for 10 min. The changes in intranasal pressure were recorded for following 45 min and differential pressure (dP) was calculated.

Data set [3] in a line: Sephadex-induced lung edema. Format: in vivo, SD rats. To be noted: Sprague-Dawley, rat, thymus, other: intratracheal; i.t., 24 hrs and 2 hrs prior to Sephadex; read-out: ED50 Thymus involution. On the procedure:
(§2) Sephadex® G-200 was prepared in sterile saline (10 mg/ml) and allowed to swell for at least 3 days at room temperature. Test compounds were administered intratracheally at 24 hrs and 2 hrs prior to intratracheal administration of Sephadex® (5 mg/kg) under light ether anesthesia. Vehicle control animals were administered vehicle instead of Sephadex®. At 24 hr after Sephadex® instillation, lung and thymus were excised from individual animals and weighed. Wet weights of lungs and thymus were corrected for 100 g of initial body weight. The percentage increase in lung weight caused by Sephadex® and its inhibitions by the compounds, were calculated. The percentage inhibitions of thymus compared to vehicle control group were also calculated

The test system of data set [4] is Sephadex-induced lung edema. Description: Sephadex-induced lung edema. Type of data set: in vivo, SD rats. To be noted: Rattus norvegicus; i.t., 24 hrs and 2 hrs prior to Sephadex; read-out: ED50 Lung edema inhibition. As to the method:
as §2

The next data set deals with T2, Progesterone receptor (Homo sapiens, UniProt P06401).
T2 construct: host or cells: insect Sf9
T2 sequence (P06401 1-933): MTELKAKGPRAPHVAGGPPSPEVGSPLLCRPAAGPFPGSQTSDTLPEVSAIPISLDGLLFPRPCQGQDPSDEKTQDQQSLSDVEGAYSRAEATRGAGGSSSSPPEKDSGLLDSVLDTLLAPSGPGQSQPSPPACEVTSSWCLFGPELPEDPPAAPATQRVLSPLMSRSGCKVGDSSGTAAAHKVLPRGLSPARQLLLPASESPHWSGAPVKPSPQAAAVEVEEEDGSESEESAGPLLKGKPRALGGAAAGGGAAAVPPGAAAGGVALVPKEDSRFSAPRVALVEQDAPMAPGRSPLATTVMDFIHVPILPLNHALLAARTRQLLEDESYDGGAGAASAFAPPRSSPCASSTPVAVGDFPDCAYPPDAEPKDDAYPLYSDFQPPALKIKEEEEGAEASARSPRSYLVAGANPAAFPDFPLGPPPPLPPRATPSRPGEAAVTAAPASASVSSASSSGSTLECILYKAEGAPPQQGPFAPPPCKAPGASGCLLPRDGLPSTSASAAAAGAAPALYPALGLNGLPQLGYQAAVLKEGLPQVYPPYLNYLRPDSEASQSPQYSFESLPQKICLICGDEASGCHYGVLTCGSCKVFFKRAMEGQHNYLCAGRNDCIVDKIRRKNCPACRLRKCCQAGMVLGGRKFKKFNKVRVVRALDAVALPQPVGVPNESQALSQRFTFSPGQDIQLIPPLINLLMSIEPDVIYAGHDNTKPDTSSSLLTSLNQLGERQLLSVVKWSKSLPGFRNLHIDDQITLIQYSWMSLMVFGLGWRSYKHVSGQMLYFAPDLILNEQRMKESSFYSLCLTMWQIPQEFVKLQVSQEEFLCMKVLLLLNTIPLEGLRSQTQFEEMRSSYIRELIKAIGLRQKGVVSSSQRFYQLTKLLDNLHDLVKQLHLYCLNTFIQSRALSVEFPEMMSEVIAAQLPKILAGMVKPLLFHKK
Description: Steroidal receptor binding screen, progesterone (human).
Excerpt: as §1

Molecules are shown by their SMILES.

For orientation: IC50 means the concentration at which inhibition is half-maximal. Higher therefore signals weaker potency in that assay. One may read the Ki as the dissociation constant of the complex between target and ligand, obtained from inhibition or displacement. The term ED50 denotes the midpoint of the dose-response relation. As for `C[C@@H]1CC2C3C[C@H](F)C4=CC(=O)C=C[C@]4(C)[C@@]3(F)[C@@H](O)C[C@]2(C)[C@@]1(OC(=O)c1ccco1)C(=O)SCC#CCOC(=O)CC(C)(C)F` (stereo partly drawn) [Formula I, S-[4-(3-Fluoro-3-methylbutyryloxy)but-2-ynyl]6α,9α-difluoro-17α-(furan-2-yl)carbonyloxy-11β-hydroxy-16α-methyl-3-oxoandrosta-1,4-diene-17β-carbothioate], the “intraocular pressure (IOP)” value in data set [1] is “insignificant (comparable to placebo)”. Besides, at Aldosterone receptor, the IC50 worked out at 0.328 µM and the affinity, expressed as Ki, was 0.256 µM. Moreover, the “inhibition of intranasal pressure” value in data set [2] is listed as “equivalent inhibition”. Besides, in data set [3], the ED50 at 24 h was determined as 8.7 mg/kg. Further, the 50% effective dose (ED50) in data set [4] is 0.094 mg/kg. At Progesterone receptor, this compound showed a half-inhibitory concentration (IC50) of 0.00852 µM and an inhibition constant Ki of 0.00329 µM.
